Reference: patent US9206236B2, “Peptides for treating cancer” (Gene Signal International SA, priority 2010, dated 2015)
“Also recorded” adds a separate entry of the source. Where a SMILES comes first, the peptide text is derived from it. [ ]: non-standard residue; d: D form. pY = N[C@@H](Cc1ccc(OP(=O)(O)O)cc1)C(=O)O

Columns and labels:
[1] = target: T1, recruitment of the regulatory subunit (p85) of the enzyme PI-3K by IRS-1 (Homo sapiens, UniProt P27986); test: Recruitment of p85 of PI-3K by IRS-1 (IRS-1 immunoprecipitation, anti-p85 immunoblot) in HMEC; assay type: cell-based; conditions: final concentration of peptide 500 μg/ml
T1 construct: endogenous in cells; host or cells: human microvascular endothelial cells (HMEC)
Procedure: (§1) Human EC grown in EGM-2MV (80% confluence) were incubated with the peptides of the invention or vehicle for the indicated time, washed three times in cold PBS and directly lysed in 2 ml of ice-cold lysis buffer (10 mM Tris pH 7.5, 150 mM NaCl, 1 mM PMSF, 0.5 μg/ml leupeptin, 1 μg/ml pepstatin A, and 1 μg/ml aprotinin) by incubation for 30 min at 4° C. Cell lysate were spun at […] for 10 min, insoluble materials were discarded, and protein contents measured by Bradford assay of supernatants were adjusted. Cell lysate (1 ml) was precleared with 25 μl of protein G-plus agarose beads (Santa Cruz) for 30 min, and proteins were then immunoprecipitated by adding 2 μg of the indicated antibody and incubated for 1 hr. The immunocomplex was pulled down with protein G-plus agarose beads and the beads were washed three times with lysis buffer. The immunoprecipitates were separated by NuPAGE® 4-12% Bis-Tris gel electrophoresis under reducing conditions, transferred to PVDF membrane (Novex System, Invitrogen), and the membrane was blocked with 5% (w/v) non-fat milk in TBS containing 0.1% v/v Tween-20 for 1 hr.
As it is widely admitted that the tyrosine phosphorylation of IRS-1 leads to its association with the regulatory subunit (p85) of the enzyme PI-3K, and this event lead to important increases in the enzymatic activity of this later, we have investigated the influence of the tyrosine phosphorylated and non phosphorylated peptides onto the recruitment of the regulatory subunit (p85) of the enzyme PI-3K by IRS-1. For that, human microvascular endothelial cells (HMEC) were incubated with the tyrosine phosphorylated and non phosphorylated peptides (final concentration of peptide 500 μg/ml) followed by cells lysis and immuoprecipitation of the protein IRS-1. The immunoprecipitates were then resolved in SDS-PAGE, proteins were transferred to membranes, and the membranes were immunoblotted with an anti-p85 PI3K monoclonal antibody.

[2] = Solubility of peptides in 10% DMSO in PBS; assay type: physicochemical; conditions: 1 mg of peptide/ml of 10% DMSO in PBS
Procedure: GS-1 as well as the control peptide GS-0 were solubilized in DMSO and the resulting solutions were diluted 10 times with phosphate buffer saline (PBS) to obtain a concentration of 1 mg of peptide/ml of 10% DMSO in PBS. At this concentration, all peptides were soluble in 10% DMSO.
GS-2 as well as the control peptide GS-0 were solubilized in DMSO and the resulting solutions were diluted 10 times with phosphate buffer saline (PBS) to obtain a concentration of 1 mg of peptide/ml of 10% DMSO in PBS. At this concentration, all peptides were soluble in 10% DMSO.

[3] = Body weight and toxicity of mice bearing NCI-H460 tumors (Example 3); assay type: in vivo
Procedure: All experiments were reviewed by the Genopole's institutional animal care and use committee and were performed in accordance with institutional guidelines for animal care. Female BALB/c nu/nu mice (n=30) were used at 5-6 weeks of age. The animals were housed in laminar air-flow cabinets under pathogen-free conditions with a 12 h light/12 h dark schedule, and fed autoclaved standard chow and water ad libitum. […] Tumor cells (10^7 cells in 200 μl of HBSS) were injected subcutaneously into the right flanks of mice. […] At tumor volume about 150 mm^3, animals were randomized, and separated into five groups of five animals. Control mice (group 1) were intraperitoneally injected with vehicle (10% DMSO in buffer saline) every day. GS-0 was dissolved in vehicle and intraperitoneally injected (group 2) every day (12 injections). GS-2 was dissolved in vehicle and intraperitoneally injected (group 3) every day (12 injections). Tumor volume and body weight were measured every other day over the treatment period (12 days).

NCI-H460 tumors = test: NCI-H460 tumor xenograft in nude mice, tumor volume (Example 3); assay type: in vivo
Procedure: H460 cell line has cytology compatible with human Non-Small Cell Lung Cancer (NSCL). Cells were grown in MEM medium containing 10% FCS at 37° C., 5% CO2 humidified atmosphere. The absence of mycoplasms was confirmed by using the PCR Mycoplasma Detection kit (Takara). All experiments were reviewed by the Genopole's institutional animal care and use committee and were performed in accordance with institutional guidelines for animal care. Female BALB/c nu/nu mice (n=30) were used at 5-6 weeks of age. The animals were housed in laminar air-flow cabinets under pathogen-free conditions with a 12 h light/12 h dark schedule, and fed autoclaved standard chow and water ad libitum. The NCI-H460 human NSCL cell line was obtained from American Type Culture Collection (ATCC) were grown in RPMI medium 1640 supplemented with 1 μM sodium pyruvate. Tumor cells (10^7 cells in 200 μl of HBSS) were injected subcutaneously into the right flanks of mice. After engraftment, tumor volume was measured by Vernier callipers, and calculated as described in Balsam A et al. (Balsari A et al. (2004) Eur J Cancer 40: 1275-1281). At tumor volume about 150 mm^3, animals were randomized, and separated into five groups of five animals. Control mice (group 1) were intraperitoneally injected with vehicle (10% DMSO in buffer saline) every day. GS-0 was dissolved in vehicle and intraperitoneally injected (group 2) every day (12 injections). GS-2 was dissolved in vehicle and intraperitoneally injected (group 3) every day (12 injections). Tumor volume and body weight were measured every other day over the treatment period (12 days). GS-2 as well as the control peptide GS-0 were solubilized in DMSO and the resulting solutions were diluted 10 times with phosphate buffer saline (PBS) to obtain a concentration of 1 mg of peptide/ml of 10% DMSO in PBS. At this concentration, all peptides were soluble in 10% DMSO.

[4] = test system: human microvascular endothelial cells (HMEC); test: In vitro angiogenesis assay (Matrigel tube formation); assay type: cell-based; conditions: 500 μg/ml final concentration of peptide, images at 18 h
Procedure: Angiogenesis of human microvascular endothelial cells (HMEC) was induced in vitro using a Matrigel assay described by Al-Mahmood et al (2009, JPET, 2009; 58:933). This method is based on the differentiation of endothelial cells to form capillary structures on a Matrigel Matrix. Matrigel is prepared the Engelbreth-Holm-Swarm (EHS) mouse tumor, which represents a complex mixture of basement membrane proteins including type IV collagen, entactin, proteo-heparan sulfate and other growth factors.
Briefly, 250 μl of Matrigel were transferred to each well of a 24-well culture plate and incubated at 37° C. for 30 min to allow for the matrix solution to solidify. HMEC grown in complete growth medium EGM-2MV were harvested by trypsin, suspended in the same growth medium and 500 μl containing 70 000 cells were added on top of the solidified Matrigel in each well and in the presence or absence of peptide. Cells were maintained in a humidified atmosphere air containing 5% CO2 at 37° C. for 18-24 hrs. Endothelial tube formation was observed and photographed under an inverted light microscope.
The designed tyrosine phosphorylated and non phosphorylated peptides were tested for their influence onto the in vitro angiogenesis. The results of the in vitro angiogenesis assay were presented in FIG. 1, using HMEC and 500 μg/ml final concentration of each peptide.

mTOR = mTOR status in HMEC after incubation with peptides (anti-mTor antibody Ser2448); assay type: cell-based, human
Procedure: as §1
The status of mTOR in the HMEC following incubation with peptides GS-0 and GS-1 was investigated.

T1 sequence (P27986 whole entry): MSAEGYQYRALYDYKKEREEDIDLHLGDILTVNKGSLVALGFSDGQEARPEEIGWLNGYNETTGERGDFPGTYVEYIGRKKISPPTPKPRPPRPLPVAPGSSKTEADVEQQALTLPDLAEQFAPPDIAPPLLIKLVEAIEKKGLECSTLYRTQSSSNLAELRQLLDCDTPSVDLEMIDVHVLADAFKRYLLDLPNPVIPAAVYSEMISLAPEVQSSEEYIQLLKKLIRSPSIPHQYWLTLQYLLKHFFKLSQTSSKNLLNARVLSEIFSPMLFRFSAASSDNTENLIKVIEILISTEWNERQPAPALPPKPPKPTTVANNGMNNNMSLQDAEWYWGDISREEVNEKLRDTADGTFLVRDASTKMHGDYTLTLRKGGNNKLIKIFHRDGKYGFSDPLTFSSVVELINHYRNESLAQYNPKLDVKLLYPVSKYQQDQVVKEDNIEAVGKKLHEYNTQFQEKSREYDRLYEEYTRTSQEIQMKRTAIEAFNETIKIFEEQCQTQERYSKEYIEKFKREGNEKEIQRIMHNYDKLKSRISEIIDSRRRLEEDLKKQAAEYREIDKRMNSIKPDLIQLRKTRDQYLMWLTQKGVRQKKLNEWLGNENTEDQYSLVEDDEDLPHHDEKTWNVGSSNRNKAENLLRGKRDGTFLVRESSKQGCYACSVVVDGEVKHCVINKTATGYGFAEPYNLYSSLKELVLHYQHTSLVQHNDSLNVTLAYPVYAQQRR

CSCC[C@H](NC(=O)[C@H](CC(N)=O)NC(=O)[C@H](CCSC)NC(=O)[C@H](Cc1ccc(OP(=O)(O)O)cc1)NC(=O)[C@H](CCC(=O)O)NC(C)=O)C(=O)N[C@@H](CC(=O)O)C(N)=O [GS-2, EpYMNMD] (Ac-E[pY]MNMD-NH2)
influence onto the recruitment of the regulatory subunit (p85) of PI3K by IRS-1 [1]: moderate inhibitory effects
solubility in 10% DMSO [2]: soluble
toxicity and body weight loss during treatment ([3]; 8 mg/kg intraperitoneally every day, 12 injections): No toxicity and no body weight loss
Mean body weight D1 ([3]; Table 3, 8 mg/kg i.p. daily, day 1, in g): 22.59
Mean body weight D3 ([3]; Table 3, 8 mg/kg i.p. daily, day 3, in g): 22.32
Mean body weight D5 ([3]; Table 3, 8 mg/kg i.p. daily, day 5, in g): 22.78
Mean body weight D7 ([3]; Table 3, 8 mg/kg i.p. daily, day 7, in g): 23.10
Mean body weight D9 ([3]; Table 3, 8 mg/kg i.p. daily, day 9, in g): 23.00
Mean body weight D11 ([3]; Table 3, 8 mg/kg i.p. daily, day 11, in g): 23.51
Mean body weight D13 ([3]; Table 3, 8 mg/kg i.p. daily, day 13, in g): 23.05
influence on the in vivo growth of the tumor NCI-H460 (in words) (NCI-H460 tumors; 8 mg/kg i.p. daily for 12 days): highly significant and potent influence; also recorded: statistically significant and potent anti-tumoral activity
mean tumor volume at the end of treatment (NCI-H460 tumors; 8 mg/kg i.p. daily for 12 days, n=5): 297.28 ± 142.67 mm^3
Mean tumor volume D1 (NCI-H460 tumors; Table 4, 8 mg/kg i.p. daily, day 1): 124 mm³
Mean tumor volume D3 (NCI-H460 tumors; Table 4, 8 mg/kg i.p. daily, day 3): 129 mm³
Mean tumor volume D5 (NCI-H460 tumors; Table 4, 8 mg/kg i.p. daily, day 5): 163 mm³
Mean tumor volume D7 (NCI-H460 tumors; Table 4, 8 mg/kg i.p. daily, day 7): 174 mm³
Mean tumor volume D9 (NCI-H460 tumors; Table 4, 8 mg/kg i.p. daily, day 9): 254 mm³
Mean tumor volume D11 (NCI-H460 tumors; Table 4, 8 mg/kg i.p. daily, day 11): 297 mm³
Mean tumor volume D13 (NCI-H460 tumors; Table 4, 8 mg/kg i.p. daily, day 13): 297 mm³
in vitro angiogenesis-inhibitory activity [4]: have in vitro angiogenesis-inhibitory activities
amounts of mTOR in HMEC relative to vehicle (mTOR): much less amounts of mTOR
